“Also recorded” adds a separate entry of the source.
What was measured:
[1] = Salt screen: XRPD of isolated solids after drying at 40° C. and at 40° C./75% RH; type: physicochemical; conditions: for XRPD after drying at 40° C./75% RH: after 40° C. drying, dried at 40° C./75% RH for about 24 h, label = form after 40° C. drying; for XRPD after drying at 40° C.: isolated solids dried at 40° C. for about 24 h, label = wet form
Experimental: To approximately 20 mg of amorphous lyophilized osanetant was added 0.3 mL of solvent for liquid counterion experiments. 0.2 mL of solvent was employed for solid counterion experiments. […] To the stirring mixture was then added 1.05 mol eq. of the appropriate counterion. Where solid counterions were used, the vial which contained the counterion was washed in to the osanetant containing vial with 0.1 mL of the appropriate solvent. Additional solvent was added where necessary. The experiments were thermally cycled as follows: heated from 25 to 40° C. at a rate of 0.1° C./min; 1 h at 40° C.; Cool to 5° C. at a rate of 0.1° C.; 1 h at 5° C.; 40° C. at a rate of 0.1° C./min; […] The crystallization experiments were thermally cycled overnight, then slurries were isolated by centrifugation. XRPD analysis was carried out on any isolated solids or gums. The XRPD plate, and the isolated solids, were then dried at 40° C. for about 24 h, and XRPD analysis was repeated. The XRPD plate was then dried at 40° C./75% RH for about 24 h and XRPD analysis was again repeated. All other samples were allowed to evaporated at ambient temperature and pressure.

[2] = Hygroscopicity / dynamic vapor sorption (DVS); type: physicochemical
Experimental: The osanetant p-toluenesulfonic acid Form 1 solids consisted of aggregated crystals with an undefined morphology. Select peaks which can be used to characterize osanetant p-toluenesulfonic acid Form 1 include one or more of 11.4°2θ±0.2°2θ, 18.0°2θ±0.2°2θ, 19.0°2θ±0.2°2θ, 19.3°2θ±0.2°2θ, 19.8°2θ±0.2°2θ, or 21.1°2θ±0.2°2θ. In some embodiments, osanetant p-toluenesulfonic acid Form 1 is a monohydrate.

[3] = Comparative studies: 7-day stability; type: physicochemical; conditions: for impurities on 7-day stability: 80° C.; for solid form on 7-day stability: 7 days, elevated temperature where stated
Experimental: Osanetant p-toluenesulfonic acid Form 1, osanetant benzene sulfonic acid Form 3, osanetant naphthalene-2-sulfonic acid Form 3, and osanetant phosphoric acid Form 7 were compared. Osanetant phosphoric acid Form 7 was obtained when preparation of osanetant phosphoric acid Form 4 was repeated and found to be not reproducible, and Form 7 was determined to be a mixture of hydrates).
Thus, osanetant benzene sulfonic acid salt Form 1 and osanetant p-toluene sulfonic acid salt Form 1 were identified as advantageous salts.

[4] = Disproportionation study (stirring in water, XRPD, pH of liquor); type: physicochemical; conditions: 10 mg in 1 mL of water, 24 h at 25° C.
Experimental: After 24 h total, a white slurry was observed and was isolated by centrifugation. The solids were analyzed by XRPD. The pH of the filtered liquor was measured at 5.63. […] After 24 h total, a white slurry was observed and was isolated by centrifugation. The solids were analyzed by XRPD. The pH of the filtered liquor was measured (pH=5.09).

[5] = Solid form stability observations (scale up / polymorph work: drying, ambient conditions, aqueous media); type: physicochemical
Experimental: Two anhydrous forms of the osanetant p-toluenesulfonic acid were synthesized. […] Form 6, described below, was a stable anhydrous form, but hydrated in water and aqueous solvent mixtures.
Advantageously, Form 1 (hydrate) and Form 6 (anhydrous) were stable on drying. Form 1 re-hydrated at room temperature and pressure after KF analysis, when it was heated in an oven to remove the water.
The experiment was cooled to 5° C. at a rate of 0.1° C./min and stirred at 5° C. for 18 h. The slurry was isolated be Buchner filtration: 42.5 mm Ø grade 1 Whatman filter paper; fast Filtration (<30 s); the cake was washed with 1 mL of ethyl acetate; the isolated solids were dried at 40° C. under vacuum for 72 h. […]

[6] = Thermodynamic solubility in water and pH buffers
[7] = Hydration study (stirring in ethanol: water mixtures, XRPD); type: physicochemical
Experimental: (§1) 20 mg of osanetant p-toluenesulfonic acid Form 1 was stirred in the appropriate ethanol: water mixtures for 24 h at 25° C. Where clear solutions were observed after 1 h at 25° C., 0.5 mL of liquor was removed, and additional solid was added until a slurry was maintained. After 24 h total, the experiments were isolated by centrifugation, and the solids were analyzed by XRPD.
as §1, with “Osanetant benzenesulfonic acid” for “20 mg of osanetant p-toluenesulfonic acid”, “Form 3 (20 mg)” for “Form 1”, “was removed from the Aw 0.257 sample,” for “was removed,”

Row | Compound | XRPD after drying at 40° C./75% RH [1] | XRPD after drying at 40° C. [1] | hygroscopicity / water loss on DVS analysis [2] | impurities on 7-day stability [3] | solid form on 7-day stability [3] | XRPD form / disproportionation after stirring in water [4] | pH of the filtered liquor [4] | hydration / form conversion in water and aqueous solvent mixtures [5] | form on drying ([5]; drying (40° C. under vacuum where stated)) | solid form after thermodynamic solubility in pH buffers [6] | thermodynamic solubility in pH buffers / buffered systems [6] | XRPD form after stirring in ethanol: water mixtures ([7]; 24 h at 25° C., Aw 0.507 and above / high water activity) | XRPD ([7]; slurry in ethanol:water 63.6:36.4 % v/v, calc Aw 0.745, 24 h at 25° C.) | XRPD ([7]; slurry in ethanol:water 92.9:7.1 % v/v, calc Aw 0.507, 24 h at 25° C.) | XRPD ([7]; slurry in ethanol:water 98.4:1.6 % v/v, calc Aw 0.257, 24 h at 25° C.) | solid chemical stability ([3]; 7-day stability results, overall)
1 | (R)-N-(1-(3-(1-benzoyl-3-(3,4-dichlorophenyl)piperidin-3-yl)propyl)-4-phenylpiperidin-4-yl)-N-methylacetamide naphthalene-2-sulfonic acid [osanetant naphthalene-2-sulfonic acid Form 3] | retained; also recorded: stable; also recorded: Form 3 | retained; also recorded: Form 3 | more hygroscopic | increase in impurities | stable solid form |  |  |  |  |  |  |  |  |  |  | 
2 | CC(=O)N(C)C1(c2ccccc2)CCN(CCC[C@]2(c3ccc(Cl)c(Cl)c3)CCCN(C(=O)c3ccccc3)C2)CC1.O=S(=O)(O)c1ccccc1 [osanetant benzenesulfonic acid Form 3, (R)-N-(1-(3-(1-benzoyl-3-(3,4-dichlorophenyl)piperidin-3-yl)propyl)-4-phenylpiperidin-4-yl)-N-methylacetamide benzenesulfonic acid] | retained; also recorded: stable; also recorded: Form 3 | Form 3 |  | slight increase in impurities; also recorded: lowest impurity increase | retained form | converted to osanetant benzenesulfonic acid Form 1 | 5.09 | converted to osanetant benzene sulfonic acid salt form Form 1 | no change | converted to Form 1 | low | conversion to osanetant benzenesulfonic acid Form 1; also recorded: converted to osanetant benzene sulfonic acid Form 1 | Form 1 | Form 1 | Form 3 | good
